# Where two headings read alike, the source gives them in different places.
# Experiments:
# Assay type in all cases: cell-based
# HIV (HTLV-IIIB strain) = test: HIV replication inhibition assay (Test Example 1; MT-4 cells, MTT)
# Method: HIV (HTLV-IIIB strain) persistent infected human T cell strain Molt-4 clone8 was cultured in RPMI-1640 medium supplemented with 10% fetal bovine serum and the supernatant was filtered, then the virus titer was measured and stored at −80° C. Each anti-human immunodeficiency virus active substance was diluted with the above culture medium to the designated concentration, which was dispensed into 96-well microtiter plate by 50 μL. Next, 100 μL of MT-4 cell suspension (2.5×10^4 cells) was dispensed into each well, then 50 μl of the above HIV-containing supernatant diluted with the above culture medium was added thereto (60 pfu (plaque forming unit)).
# Cell mixture was cultured at 37° C. in CO2 incubator for four days, then 30 μL of MTT (3-(4,5-dimethylthiazole-2-yl)-2,5-diphenyltetrazolyum bromide) reagent (5 mg/mL in PBS) was added to all wells followed by incubation for 1 hour. In this step, MTT was reduced to insoluble formazan in living cells. To elute generated formazan 150 μL of the culture supernatant was removed from all wells, then 150 μL of cell lysis solution (10% Triton X-100 and 0.4% (v/v)-HCl containing isopropanol) was added thereto, followed by shaking with a plate mixer. The formazan was measured with micro plate reader at OD: 560 nm and 690 nm (reference wavelength) and the result was compared with the reference wells. EC50 and EC90 mean the compound concentration at which cytotoxicity caused by virus infection is inhibited 50% and 90%, respectively.
# [1] = system: sheep red blood cells (RBC); test: Photohemolysis test (Test Example 13); conditions: 0.0008 to 0.1 w/v %, 10 J/cm2 UV-irradiation (290-400 nm)
# Text: Aliquots of sheep red blood cells (RBC) suspension prepared with medium to make a 2.5 v/v % concentration are dispensed into microplates. The compound of the present invention was desolved with a vehicle to make target concentrations and then these solutions were immediately added (in concentrations of 0.0008 to 0.1 w/v %) into the microplates. The mixtures on the microplates were exposed to 10 J/cm2 of UV-irradiation (UV-A and UV-B, 290-400 nm) with a GL20SE lamp (SANKYO DENKI) and a FL20S-BLB lamp (Panasonic). After the UV-irradiation, the mixtures were centrifuged. Aliquots of supernatant were transferred to a microplate. Absorbance of the supernatants was measured at 540 nm and 630 nm for judgement of the potential of phototoxicity. In the study, two endpoints were evaluated in biomembrane impairment (% of photohemolysis index; PI) and hyperoxidation of lipid membrane (methemoglobin formation; met-Hb) with the absorbance at 540 nm and 630 nm, respectively. PI and met-Hb were assessed based on the negative criteria (−), PI<10% and changes in absorbance at 630 nm<0.05, respectively. All else was judged as positive (+).
# HIV = conditions: EC50 in the presence of human serum (25%) versus without human serum, MT-4 cells
# In short: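 Compound is preincubated 1 h at room temperature with human serum, or with medium alone as the serum-free control. MT-4 cells infected with HIV (1 h, 37° C) are added and cultured 4 days. EC50 is determined with and without serum; their ratio gives the potency shift.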
# [2] = system: T125A mutant virus (HIV-1 NL-432 recombinant molecular clone, IN gene); test: HIV replication inhibition assay against integrase 124/125 mutant virus (Test Example 2)
# In short: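 MT-4 cells (2.5×10^4 per well) infected with 60 pfu of 293T-derived HIV-1 NL-432 clone carrying integrase 124/125 point mutations, in presence of compound, cultured 4 days at 37 °C. Viability by MTT formazan at 560/690 nm; EC50 = concentration inhibiting 50% of virus-induced cytotoxicity.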
# [3] = Human immunodeficiency virus 1, MT4, 96 h, HIV (HTLV-IIIB strain), MT-4 cells, MTT, four days, read-out: EC50
# [4] = Human immunodeficiency virus 1, MT4, 96 h, HIV (HTLV-IIIB strain), MT-4 cells, MTT, four days, read-out: EC90
# [5] = Human immunodeficiency virus 1, MT4, read-out: EC50 against T125A mutant virus, T125A mutant virus (HIV-1 NL-432 IN gene), MT-4 cells, MTT
# [6] = Human immunodeficiency virus 1, MT4, 96 h, MT-4 cells, HIV HTLV-IIIB strain, cultured four days, MTT, read-out: EC50
# [7] = HIV (HTLV-IIIB strain), MT-4 cells, MTT, four days, read-out: EC50
# [8] = HIV (HTLV-IIIB strain), MT-4 cells, MTT, four days, read-out: EC90
# [9] = T125A mutant virus (HIV-1 NL-432 IN gene), MT-4 cells, MTT, read-out: EC50 against T125A mutant virus
# [10] = Human immunodeficiency virus 1, IIIB, MT4, 96 h
Compound,EC50 (HIV (HTLV-IIIB strain); [3]) [nM],EC90 (HIV (HTLV-IIIB strain); [4]) [nM],"Photohemolysis test, potential of phototoxicity (PI and met-Hb) [1]",Potency shift value (HIV),"EC50 [2, 5] [nM]",EC50 (HIV (HTLV-IIIB strain); [6]) [nM],EC50 (HIV (HTLV-IIIB strain); [7]) [nM],EC90 (HIV (HTLV-IIIB strain); [8]) [nM],"EC50 [2, 9] [nM]",EC50 (HIV (HTLV-IIIB strain); [10]) [nM],EC90 (HIV (HTLV-IIIB strain); [10]) [nM]
Cc1c([C@H](OC(C)(C)C)C(=O)O)c(-c2ccc(Cl)cc2)c2cc(C)n3c2c1N(C)CC3 [Compound I-012],0.77,1.1,"(−) (negative criteria (−), PI<10% and changes in absorbance at 630 nm<0.05, respectively)",13,3.8,–,–,–,–,–,–
Cc1c([C@H](OC(C)(C)C)C(=O)O)c(-c2ccc(Cl)cc2)c2cc(C)n3c2c1N(C(=O)CN(C)C)CC3 [Compound I-017],20,31,–,4.5,94,–,–,–,–,–,–
Cc1ccc(-c2c([C@H](OC(C)(C)C)C(=O)O)c(C)c3c4c2cc(C)n4CCN3C)c(O)c1 (mixture of isomers) [Compound I-245],27,42,–,12,63,–,–,–,–,–,–
Cc1c([C@H](OC(C)(C)C)C(=O)O)c(-c2ccc(Cl)cc2)c2cc(C)n3c2c1N1C(=O)OCC[C@@H]1C3 [Compound I-167],–,18,–,4.1,49,7.6,–,–,–,–,–
Cc1ccc(-c2c([C@H](OC(C)(C)C)C(=O)O)c(C)c3c4c2cc(C)n4CCN3c2ncc(N3CCN(C)CC3)cn2)cc1 [Compound I-204],–,–,–,3.6,–,–,4.1,5.8,9.5,–,–
Cc1ccc(-c2c([C@H](OC(C)(C)C)C(=O)O)c(C)c3c4c2cc(C(F)F)n4CCN3C)cc1 [Compound I-024],1.6,2.1,–,22,7.7,–,–,–,–,–,–
[2H]C([2H])([2H])Oc1cnc(N2CCn3c(C)cc4c(-c5ccc(C)cc5)c([C@H](OC(C)(C)C)C(=O)O)c(C)c2c43)nc1 [Compound I-266],1.3,2.1,–,23,3.7,–,–,–,–,–,–
COc1cnc(N2CCn3c(C)cc4c(-c5ccc(C)cc5O)c([C@H](OC(C)(C)C)C(=O)O)c(C)c2c43)nc1 [Compound I-205],–,–,–,32,–,–,16,35,63,–,–
Cc1ccc(-c2c([C@H](OC(C)(C)C)C(=O)O)c(C)c3c4c2cc(C)n4CCN3c2ncc(OCF)cn2)cc1 [Compound I-282],1.4,2.1,–,36,4,–,–,–,–,–,–
CCS(=O)(=O)N1CCn2c(C)cc3c(-c4ccc(Cl)cc4)c([C@H](OC(C)(C)C)C(=O)O)c(C)c1c32 [Compound I-023],1,2.6,–,12,5.5,–,–,–,–,–,–
Cc1ccc(-c2c([C@H](OC(C)(C)C)C(=O)O)c(Cl)c3c4c2cc(C)n4CCN3CCN(C)C)cc1 [Compound I-265],13,30,–,2.5,44,–,–,–,–,–,–
Cc1ccc(-c2c([C@H](OC(C)(C)C)C(=O)O)c(C)c3c4c2cc(C)n4CCN3C)cc1 [Compound I-001],0.69,1.1,"(−) (negative criteria (−), PI<10% and changes in absorbance at 630 nm<0.05, respectively)",13,4.7,–,–,–,–,–,–
Cc1ccc(-c2c([C@H](OC(C)(C)C)C(=O)O)c(C)c3c4c2cc(C)n4CCN3CCN2CCCO2)cc1 [Compound I-170],–,5.2,–,3.5,18,3.1,–,–,–,–,–
COc1cnc(N2CCn3c(C)cc4c(-c5c(F)cc(C)cc5F)c([C@H](OC(C)(C)C)C(=O)O)c(C)c2c43)nc1 [Compound I-230],1.8,3.3,–,24,6.7,–,–,–,–,–,–
COc1cnc(N2CCn3c(C)cc4c(-c5ccc(C)cc5)c([C@H](OC(C)(C)C)C(=O)O)c(Cl)c2c43)nc1 [Compound I-226],–,–,–,26,–,–,1.2,1.6,3.6,–,–
CC(=O)N1CCn2c(C)cc3c(-c4ccc(Cl)cc4)c([C@H](OC(C)(C)C)C(=O)O)c(C)c1c32 [Compound I-025],2.3,3.1,–,11,13,–,–,–,–,–,–
Cc1ccc(-c2c([C@H](OC(C)(C)C)C(=O)O)c(C)c3c4c2cc(C)n4CCN3CCO)cc1 [Compound I-021],5.2,7.5,–,5.4,22,–,–,–,–,–,–
Cc1ccc(-c2c([C@H](OC(C)(C)C)C(=O)O)c(C)c3c4c2cc(C(F)(F)F)n4CCN3C)cc1 [Compound I-007],2,3.6,–,49,18,–,–,–,–,–,–
Cc1c([C@H](OC(C)(C)C)C(=O)O)c(-c2ccc(Cl)cc2)c2cc(C)n3c2c1N(c1ncc(OCCO)cn1)CC3 [Compound I-254],7.9,13,–,10,17,–,–,–,–,–,–
Cc1c([C@H](OC(C)(C)C)C(=O)O)c(-c2ccc(Cl)cc2)c2cc(C)n3c2c1N(S(=O)(=O)CC[Si](C)(C)C)CC3 [Compound I-029],–,–,–,28,89,–,–,–,–,8.6,12
Cc1c([C@H](OC(C)(C)C)C(=O)O)c(-c2ccc(Cl)cc2)c2cc(C)n3c2c1N(c1ncccn1)CC3 [Compound I-085],–,–,"(−) (negative criteria (−), PI<10% and changes in absorbance at 630 nm<0.05, respectively)",22,–,–,0.54,0.58,3.7,–,–
COCCCOc1cnc(N2CCn3c(C)cc4c(-c5ccc(Cl)cc5)c([C@H](OC(C)(C)C)C(=O)O)c(C)c2c43)nc1 [Compound I-255],1.6,2.4,–,22,5.1,–,–,–,–,–,–

# Reference: patent US10494380B2, “Nitrogen-containing tricyclic derivatives having HIV replication inhibitory activity” (priority 2015, dated 2019)
